Test results taken from US20220220106A1, “QUINOLINE COMPOUNDS AND PHARMACEUTICAL COMPOSITIONS AND USES THEREOF” (Academy of Military Medical Sciences, priority 2019, published 2022).
Like-named read-outs stand apart in the source and are kept apart here.

What was measured:
[1] = test system: Enterovirus 71 (EV71) H strain; experiment: In vitro anti-EV71 activity (antiviral activity in RD cells, CellTiter-Glo); type: cell-based; conditions: for IC50: Enterovirus A, 96 h; for in vitro anti-EV71 activity, in words: EV71, RD cells
In short: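 RD cells infected with 100TCID50 EV71 in DMEM+2% FBS, with compound in 10-point three-fold dilutions, cultured 4 days at 37° C. Cell viability by CellTiter-Glo luminescence; inhibition rate relative to cell control fitted to S-curve for IC50. TD50 derived likewise; SI=TD50/IC50.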

[2] = molecular target: T1, mTORC2 (Homo sapiens, UniProt P42345); experiment: Western blot, phosphorylation of Ser473 of Akt in RD cells (mTORC2 inhibition); type: cell-based; conditions: 20 μM, 2 hours, Western blot (FIG. 1)
T1 construct: endogenous in cells; host or cells: RD cells
Experimental: In order to test the inhibitory activity of the synthesized compounds on the two mTOR complexes, the inhibitory activity experiments of mTORC1 and mTORC2 were carried out. Since mTORC1 and mTORC2 exerted their function by activating the phosphorylation of downstream substrates, the inhibitory activity of the compounds on mTORC1 and mTORC2 could be determined by detecting the phosphorylation levels of the Thr389 site of mTORC1 downstream substrate p70S6K1 and the Ser473 site of mTORC2 downstream substrate Akt.
Pretreatment of Compound:
(1) RD cells were cultured in DMEM medium containing 10% FBS and 1×PS (penicillin and streptomycin were at concentrations 100 IU and 100 μg/mL, respectively) at 37° C. and 5% CO2.
(2) The RD cells (5×10^5 cells/2 mL medium) were inoculated into a 6-well plate and incubated at 37° C. and 5% CO2 for 24 hours.
(3) The cells were washed once with PBS, and the cells were cultured in serum-free medium without nutrients overnight.
(4) Formulation of compounds: […]
Preparation of insulin medium: Insulin was diluted in DMEM medium containing 10% FBS and 1×PS so that the final concentration of insulin was 167 nM.
Pretreatment of compound to be tested: The compound was dissolved in DMSO so that the concentration of the test compound was 20 mM, and the compound was diluted in 167 nM insulin medium to reach a concentration of 20 μM.
Preparation of rapamycin solution: Rapamycin was dissolved in DMSO to a concentration of 10 mM, and the rapamycin was diluted in 167 nM insulin medium to reach a concentration of 20 μM.
(5) The serum-free medium in each well was removed.
(6) 2 mL of complete medium containing DMSO was added to each well as a control carrier. The final concentration of DMSO was 0.2%.
(7) 2 mL of 20 μM rapamycin solution and 20 μM the compound to be tested were added to the designated wells, respectively. The final concentration of DMSO was 0.2%.
(8) The cells were incubated for 2 hours at 37° C. and 5% CO2.
Protein extraction and concentration determination:
(1) The cells were washed once with refrigerated PBS, and then the PBS was discarded.
(2) 150 μL of cell extraction buffer (RIPA, […], catalog number: C1053) was transferred into each well to lyse the cells, and then the resulting cell solution were incubated on ice for 30 minutes.
(3) Centrifugation was performed at 14000 rpm (13000× g) for 30 minutes at 4° C.
(4) The supernatant was transferred into a new eppendorf tube, and the cell lysate was stored at −80° C. before testing.
(5) The protein concentration was determined by BCA method.
Preparation of Buffer Solutions:
(1) 100× Protease inhibitor (Beyotime, catalog number: P1005): 1 mL of redistilled water was added to the protease inhibitor and stirred gently until the solid was completely dissolved.
(2) Lysis Buffer: […] of 100× protease inhibitor and 2× phosphatase inhibitor Cocktails PhosSTOP (Beyotime, catalog number: P1082) were added to 100 mL of the cell extract, and stirred gently until it was completely dissolved.
(3) Electrophoresis Running Buffer:
10×MOPS buffer: 52.33 g of MOPS, 30.29 g of Tris base, 10 mL of 0.5 mol/L EDTA (pH 8.5) and 5 g of SDS was dissolved in 400 mL of redistilled water, stirred to dissolve, and the pH was adjusted to 7.5, then redistilled water was added again to reach a volume of 500 mL; 1×MOPS: 100 mL of 10×MOPS was diluted with redistilled water to 1000 mL.
(4) 1× Transfer Buffer: […] of 10× transfer buffer (144 g of glucine, 30.3 g of trisbase, and distilled water were mixed to reach a volume of 1 L) and 400 mL of methanol were dissolved in 1500 mL of redistilled water, and then the redistilled water was added to reach a volume of 2000 mL. […]

[3] = EV71 H strain, RD cells, 4 days, CellTiter-Glo, read-out: IC50

| SMILES | IC50 [1, 3] [µM] | phosphorylation expression level of Akt [2] | IC50 ([1]; EV71, RD) [µM] | in vitro anti-EV71 activity, in words [1] |
| --- | --- | --- | --- | --- |
| O=C1Cc2cc(-c3ccc4ncc5ccc(=O)n(-c6cccc(C(F)(F)F)c6)c5c4c3)ccc2N1 [HTL-7-04, 9-[5-(2-oxo)indolyl]-2-oxo-1-[3-(trifluoromethyl)phenyl]-1,2-dihydrobenzo[h][1,6]naphthyridine] | 10.5 ± 0.56 | significantly down-regulate |  |  |
| O=C(Nc1ccc(-c2ccc3ncc4ccc(=O)n(-c5cccc(C(F)(F)F)c5)c4c3c2)cn1)Oc1ccccc1 [HTL-7-15, 9-[3-(6-phenoxyamido)pyridyl]-2-oxo-1-[3-(trifluoromethyl)phenyl]-1,2-dihydrobenzo[h][1,6]naphthyridine] |  | significantly down-regulate | 0.09 ± 0.02 |  |
| COc1ccc(CC(=O)Nc2ccc(-c3ccc4ncc5ccc(=O)n(-c6cccc(C(F)(F)F)c6)c5c4c3)cn2)cc1 [HTL-7-11, 9-{3-[6-(4-methoxy)phenylacetylamino]pyridyl}-2-oxo-1-[3-(trifluoromethyl)phenyl]-1,2-dihydrobenzo[h][1,6]naphthyridine] | 0.095 ± 0.007 | significantly down-regulate |  |  |
| Nc1cccc(Nc2ccc3ncc4ccc(=O)n(-c5cccc(C(F)(F)F)c5)c4c3c2)n1 [HTL-6-12, 9-[2-(6-aminopyridyl)]imino-2-oxo-1-[3-(trifluoromethyl)phenyl]-1,2-dihydrobenzo[h][1,6]naphthyridine] | 1.23 ± 0.22 | significantly down-regulate |  | moderate activity |
| O=c1ccc2cnc3ccc(-c4cccnc4F)cc3c2n1-c1cccc(C(F)(F)F)c1 [HTL-6-48, 9-[3-(2-fluoro)pyridyl]-2-oxo-1-[3-(trifluoromethyl)phenyl]-1,2-dihydrobenzo [h][1,6]naphthyridine] | 0.059 | significantly down-regulate |  | high activity |
| CN(C)c1ccc(-c2ccc3ncc4ccc(=O)n(-c5cccc(C(F)(F)F)c5)c4c3c2)cn1 [HTL-7-16, 9-[3-(6-N,N-dimethyl)pyridyl]-2-oxo-1-[3-(trifluoromethyl)phenyl]-1,2-dihydrobenzo[h][1,6]naphthyridine] | 0.09 ± 0.01 | significantly down-regulate |  |  |
| O=c1ccc2cnc3ccc(-c4cc[nH]n4)cc3c2n1-c1cccc(C(F)(F)F)c1 [HTL-6-50, 9-[(1H)-3-pyrazolyl]-2-oxo-1-[3-(trifluoromethyl)phenyl]-1,2-dihydrobenzo[h][1,6]naphthyridine] | > 200 | significantly down-regulate |  |  |
